Like-named read-outs stand apart in the source and are kept apart here.
What was measured:
SARS-CoV-2 nsp3-mac1 [1] = molecular target: T1, SARS-CoV-2 nsp3-mac1 (Severe acute respiratory syndrome coronavirus 2, UniProt P0DTD1); test: biochemical; set-up: SARS-CoV-2 nsp3 macrodomain TR-FRET single point, per cent inhibition, n=2
SARS-CoV-2 nsp3-mac1 [2] = molecular target: T1, SARS-CoV-2 nsp3-mac1; test: biochemical; format: biochemical; conditions: SARS-CoV-2 nsp3 macrodomain TR-FRET single point
[3] = read-out: perc_inhibition_mean, batch_name=ASAP-0000467-001
[4] = read-out: perc_inhibition_mean, batch_name=ASAP-0000468-001
[5] = read-out: perc_inhibition_mean, batch_name=ASAP-0000469-001
[6] = read-out: perc_inhibition_mean, batch_name=ASAP-0000470-001
[7] = read-out: perc_inhibition_mean, batch_name=ASAP-0000471-001
[8] = read-out: perc_inhibition_mean, batch_name=ASAP-0000472-001
[9] = read-out: perc_inhibition_mean, batch_name=ASAP-0000473-001
[10] = read-out: perc_inhibition_mean, batch_name=ASAP-0000474-001
[11] = read-out: perc_inhibition_mean, batch_name=ASAP-0000475-001
[12] = read-out: perc_inhibition_mean, batch_name=ASAP-0000476-001
[13] = read-out: perc_inhibition_mean, batch_name=ASAP-0000477-001
[14] = read-out: perc_inhibition_mean, batch_name=ASAP-0000478-001
[15] = read-out: perc_inhibition_mean, batch_name=ASAP-0000479-001
[16] = read-out: perc_inhibition_mean, batch_name=ASAP-0000480-001
[17] = read-out: perc_inhibition_mean, batch_name=ASAP-0000481-001
[18] = read-out: perc_inhibition_mean, batch_name=ASAP-0000482-001

`COc1ccccc1C[C@@H](Nc1ncnc2[nH]ccc12)C(C)C` [ASAP-0000467] gave an inhibition at 49.75 µM (SARS-CoV-2 nsp3-mac1 [1]; [3]) of 31.7%, an inhibition at 99.5 µM (SARS-CoV-2 nsp3-mac1 [1]; [3]) of 48.5% and a perc_inhibition_mean (SARS-CoV-2 nsp3-mac1 [2]; concentration 49.75 uM) of 31.716%. It also gave a perc_inhibition_mean (SARS-CoV-2 nsp3-mac1 [2]; concentration 99.5 uM) of 48.499%.

`Cc1nn(-c2ccccc2)c(C)c1[C@H]1COCCN1c1ncnc2[nH]ccc12` [ASAP-0000468] showed an inhibition at 49.75 µM (SARS-CoV-2 nsp3-mac1 [1]; [4]) of -0.042%, an inhibition at 99.5 µM (SARS-CoV-2 nsp3-mac1 [1]; [4]) of -4.22% and a perc_inhibition_mean (SARS-CoV-2 nsp3-mac1 [2]; concentration 49.75 uM) of -0.042%. It also gave a perc_inhibition_mean (SARS-CoV-2 nsp3-mac1 [2]; concentration 99.5 uM) of -4.216%.

`O=C(N[C@H](Cn1cnc2cc(F)c(F)cc21)C(=O)O)c1ncnc2[nH]ccc12` [ASAP-0000469] showed an inhibition at 49.75 µM (SARS-CoV-2 nsp3-mac1 [1]; [5]) of -2.04%, an inhibition at 99.5 µM (SARS-CoV-2 nsp3-mac1 [1]; [5]) of 8.39% and a perc_inhibition_mean (SARS-CoV-2 nsp3-mac1 [2]; concentration 49.75 uM) of -2.035%. The perc_inhibition_mean (SARS-CoV-2 nsp3-mac1 [2]; concentration 99.5 uM) was 8.395%.

`C[C@@H](Nc1ncnc2[nH]ccc12)c1cnn(Cc2ccccc2)c1` [ASAP-0000470] gave an inhibition at 49.75 µM (SARS-CoV-2 nsp3-mac1 [1]; [6]) of -4.11%, an inhibition at 99.5 µM (SARS-CoV-2 nsp3-mac1 [1]; [6]) of 3.18% and a perc_inhibition_mean (SARS-CoV-2 nsp3-mac1 [2]; concentration 49.75 uM) of -4.105%. The perc_inhibition_mean (SARS-CoV-2 nsp3-mac1 [2]; concentration 99.5 uM) was 3.18%.

`CC(C)[C@@H](Nc1ncnc2[nH]ccc12)c1nc2ccccc2[nH]1` [ASAP-0000471] showed an inhibition at 49.75 µM (SARS-CoV-2 nsp3-mac1 [1]; [7]) of 37.3%, an inhibition at 99.5 µM (SARS-CoV-2 nsp3-mac1 [1]; [7]) of 52.5% and a perc_inhibition_mean (SARS-CoV-2 nsp3-mac1 [2]; concentration 49.75 uM) of 37.305%. For the same compound, the perc_inhibition_mean (SARS-CoV-2 nsp3-mac1 [2]; concentration 99.5 uM) was 52.508%.

`c1nc(N[C@@H]2CCCc3c2cnn3C2CCCC2)c2cc[nH]c2n1` [ASAP-0000472] was tested, and the inhibition at 49.75 µM (SARS-CoV-2 nsp3-mac1 [1]; [8]) was 0.884%, the inhibition at 99.5 µM (SARS-CoV-2 nsp3-mac1 [1]; [8]) was 14.3% and the perc_inhibition_mean (SARS-CoV-2 nsp3-mac1 [2]; concentration 49.75 uM) was 0.884%. For the same compound, the perc_inhibition_mean (SARS-CoV-2 nsp3-mac1 [2]; concentration 99.5 uM) was 14.273%.

With `C[C@@H](Nc1ncnc2[nH]ccc12)c1cnn(CC2CCC2)c1` [ASAP-0000473] the inhibition at 49.75 µM (SARS-CoV-2 nsp3-mac1 [1]; [9]) was -0.451%, the inhibition at 99.5 µM (SARS-CoV-2 nsp3-mac1 [1]; [9]) was 4.9% and the perc_inhibition_mean (SARS-CoV-2 nsp3-mac1 [2]; concentration 49.75 uM) was -0.451%. It also gave a perc_inhibition_mean (SARS-CoV-2 nsp3-mac1 [2]; concentration 99.5 uM) of 4.9%.

`Cn1cc([C@H]2CCCCN2c2ncnc3[nH]ccc23)cn1` [ASAP-0000474] showed an inhibition at 49.75 µM (SARS-CoV-2 nsp3-mac1 [1]; [10]) of 6.39%, an inhibition at 99.5 µM (SARS-CoV-2 nsp3-mac1 [1]; [10]) of 8.32% and a perc_inhibition_mean (SARS-CoV-2 nsp3-mac1 [2]; concentration 49.75 uM) of 6.392%. The perc_inhibition_mean (SARS-CoV-2 nsp3-mac1 [2]; concentration 99.5 uM) was 8.316%.

Work on `CC(C)[C@@H](CCN(C)C(=O)c1cc2c(s1)CC[C@H](C)C2)Nc1ncnc2[nH]ccc12` [ASAP-0000475] yielded an inhibition at 49.75 µM (SARS-CoV-2 nsp3-mac1 [1]; [11]) of -9.68%, an inhibition at 99.5 µM (SARS-CoV-2 nsp3-mac1 [1]; [11]) of -29.7% and a perc_inhibition_mean (SARS-CoV-2 nsp3-mac1 [2]; concentration 49.75 uM) of -9.684%. It also gave a perc_inhibition_mean (SARS-CoV-2 nsp3-mac1 [2]; concentration 99.5 uM) of -29.716%.

With `Cc1c([C@@H](C)Nc2ncnc3[nH]ccc23)cnn1-c1ccccc1` [ASAP-0000476] the inhibition at 49.75 µM (SARS-CoV-2 nsp3-mac1 [1]; [12]) was 28.1%, the inhibition at 99.5 µM (SARS-CoV-2 nsp3-mac1 [1]; [12]) was 41.7% and the perc_inhibition_mean (SARS-CoV-2 nsp3-mac1 [2]; concentration 49.75 uM) was 28.129%. It also gave a perc_inhibition_mean (SARS-CoV-2 nsp3-mac1 [2]; concentration 99.5 uM) of 41.664%.

Compound `CC(C)[C@H]1N(c2ncnc3[nH]ccc23)CC12CCOCC2` [ASAP-0000477] has an inhibition at 49.75 µM (SARS-CoV-2 nsp3-mac1 [1]; [13]) of 27.6%, an inhibition at 99.5 µM (SARS-CoV-2 nsp3-mac1 [1]; [13]) of 48% and a perc_inhibition_mean (SARS-CoV-2 nsp3-mac1 [2]; concentration 49.75 uM) of 27.65%. The perc_inhibition_mean (SARS-CoV-2 nsp3-mac1 [2]; concentration 99.5 uM) was 47.993%.

`CC(C)Cn1cc([C@H]2N(c3ncnc4[nH]ccc34)CC23CCOCC3)cn1` [ASAP-0000478] gave an inhibition at 49.75 µM (SARS-CoV-2 nsp3-mac1 [1]; [14]) of -0.591%, an inhibition at 99.5 µM (SARS-CoV-2 nsp3-mac1 [1]; [14]) of -4.66% and a perc_inhibition_mean (SARS-CoV-2 nsp3-mac1 [2]; concentration 49.75 uM) of -0.591%. It also gave a perc_inhibition_mean (SARS-CoV-2 nsp3-mac1 [2]; concentration 99.5 uM) of -4.664%.

In the case of `CC(C)[C@@H]1C(=O)NCCN1c1ncnc2[nH]ccc12` [ASAP-0000479], the inhibition at 49.75 µM (SARS-CoV-2 nsp3-mac1 [1]; [15]) is reported as 61.4%, the inhibition at 99.5 µM (SARS-CoV-2 nsp3-mac1 [1]; [15]) is reported as 80.7% and the perc_inhibition_mean (SARS-CoV-2 nsp3-mac1 [2]; concentration 49.75 uM) is reported as 61.35%. It also gave a perc_inhibition_mean (SARS-CoV-2 nsp3-mac1 [2]; concentration 99.5 uM) of 80.665%.

For `CC(C)[C@@H](CO)[C@@H](Nc1ncnc2[nH]ccc12)C(C)C` [ASAP-0000480], the inhibition at 49.75 µM (SARS-CoV-2 nsp3-mac1 [1]; [16]) was 6.65%, the inhibition at 99.5 µM (SARS-CoV-2 nsp3-mac1 [1]; [16]) was 13.1% and the perc_inhibition_mean (SARS-CoV-2 nsp3-mac1 [2]; concentration 49.75 uM) was 6.651%. The perc_inhibition_mean (SARS-CoV-2 nsp3-mac1 [2]; concentration 99.5 uM) was 13.057%.

For `CC(C)[C@@H](CCN(C)C(=O)C1CCc2ccccc2CC1)Nc1ncnc2[nH]ccc12` [ASAP-0000481], the inhibition at 49.75 µM (SARS-CoV-2 nsp3-mac1 [1]; [17]) was -5.62%, the inhibition at 99.5 µM (SARS-CoV-2 nsp3-mac1 [1]; [17]) was -10.9% and the perc_inhibition_mean (SARS-CoV-2 nsp3-mac1 [2]; concentration 49.75 uM) was -5.62%. The perc_inhibition_mean (SARS-CoV-2 nsp3-mac1 [2]; concentration 99.5 uM) was -10.916%.

`CC(C)[C@@H](Nc1ncnc2[nH]ccc12)C(=O)N(C)Cc1nnc2n1CCC2` [ASAP-0000482] was tested, and the inhibition at 49.75 µM (SARS-CoV-2 nsp3-mac1 [1]; [18]) was -8.89%, the inhibition at 99.5 µM (SARS-CoV-2 nsp3-mac1 [1]; [18]) was -6.14% and the perc_inhibition_mean (SARS-CoV-2 nsp3-mac1 [2]; concentration 49.75 uM) was -8.89%. The perc_inhibition_mean (SARS-CoV-2 nsp3-mac1 [2]; concentration 99.5 uM) was -6.138%.

Reference: publication doi:10.1101/2024.08.19.608619, “Discovery of potent SARS-CoV-2 nsp3 macrodomain inhibitors uncovers lack of translation to cellular antiviral response” (bioRxiv, 2024)
